The record followed here is PMC4809498, “Artonin E Induces Apoptosis via Mitochondrial Dysregulation in SKOV-3 Ovarian Cancer Cells” (PLoS ONE, 2016).

Values after ≈ are worked out from the molar mass of the structure shown.

The subject of assay [1] is caspase-8. Kind of assay: Western blot, caspase-8. The assay is classed as cell-based, human. The following applies: SKOV-3, 8 μg/mL, after 48 and 72 h. The method, then: (§1) SKOV-3 cells were plated in a 75cm^2 culture flask and exposed to artonin E for 24, 48, and 72 h. Lysis buffer (50 mM Tris–HCl, pH 8.0; 120 mM NaCl, 0.5% NP-40; and 1 mM PMSF) was used to extract the total protein. Protein concentration was determined using a BCA protein assay reagent kit (Bio-Rad, USA). Equal amounts of protein (40 μg) extract were subjected to SDS-PAGE and electroblotted onto a polyvinylidenedifluoride membrane (Bio-Rad). Blots were then blocked with 5% non-fat milk in TBS-Tween buffer 7 (0.12 M Tris-base, 1.5 M NaCl, and 0.1% Tween 20) for 1 h at room temperature. After incubating with the appropriate primary antibody overnight at 4°C, the blots were washed and then incubated with horseradish peroxidase conjugated secondary antibody for 1 h at room temperature. The protein bands were detected using pico or femto chemiluminescence (ECL system) and visualized using a UV gel documentation system. The subsequent primary antibodies, which include those for β-actin (1:10,000), Bax (1:10,000), Bcl-2 (1:10,000), HSP-70 (1:10,000), survivin (1:10,000),caspase -3 (1:10,000), caspase -8 (1:10,000), caspase -9 (1;10,000) and cytochrome c (1:200) were purchased from Abcam, Cambridge, United Kingdom.

Assay [2] concerns Human periodontal ligament fibroblasts. The assay can be described thus: MTT cell viability assay, periodontal fibroblasts. The assay is classed as cell-based. The following applies: Human periodontal fibroblast, 24 h treatment. How it is done: (§2) Metastatic ovarian adenocarcinoma (SKOV-3) and normal Chinese hamster ovary (CHO) cell lines were originally obtained from the American Type Culture Collection (ATCC; Manassas, VA). SKOV-3 cells were cultured in McCoy’s 5A medium and CHO cells were cultured in F12K medium. A human periodontal ligament fibroblast cell line was purchased from Lonza, USA and maintained in stroma cell basal medium. T1074 (normal immortalized human ovarian surface epithelial cell line) was originally purchased from Applied Biological Materials (abm®) Canada and cultured in Prigrow 1 medium.
The inhibitory effects of artonin E and two positive controls paclitaxel and carboplatin were examined by MTT assay. Cells at a density of 5×10^3cells/well were placed in a 96-well plate and left for 24 h to attach. The attached cells were exposed to artonin E, paclitaxel, and carboplatin at different concentrations and incubated for 24, 48, and 72 h. Subsequently, 20 μL of 5 mg/mL MTT solution was added after drug treatment and the resulting mixture was incubated for 4 h to form purple formazan. Afterward, 100 μL of dimethyl sulfoxide (DMSO) was transferred into each well to dissolve the purple formazan, and results were measured using a microplate reader (Tecan Infinite M 200 PRO, Männedorf, Switzerland) at an absorbance of 570 nm. […]
On the technique in general: Tetrazolium assays rely on reduction of a dye to a coloured formazan, in cell work by metabolically active cells.

Another assay deals with caspase-9. Kind of assay: Colorimetric caspase-9 activation assay. Type of assay: cell-based, human. Particulars: SKOV-3, 8 μg/mL, from 24 h, prolonged exposure. The method, then:
(§3) Calorimetric assay of the activation of caspases-3, -8, and -9 was conducted using R & D system kit, USA. Briefly, in a T75cm^2 flask 90% confluent SKOV-3 cells were induced with artonin E for 24, 48, and 72 h. The induced cells were trypsinized and centrifuged at 1,800 rpm for 10 min. The fresh pellets were washed with cold PBS and immediately lysed with protein lysis buffer. The cell lysate was then kept on ice for 10 min, centrifuged at 10,000 g for 15 min, and transferred into a new tube. The fresh cell lysate (50 μL), which contained 100–200 μg of protein, was added into a 96-well plate in triplicate. Fifty microliters of reaction buffer and 5 μL of caspase were then transferred into each designated well before incubating the plate in a CO2 incubator at 37°C for 2 h. A microplate reader (Tecan Infinite M 200 PRO, Männedorf, Switzerland) was used for analysis at a wavelength of 405 nm.

A further assay has as its system Bcl-2. Kind of assay: Western blot, Bcl-2. Type of assay: cell-based, human. The following applies: SKOV-3, 8 μg/mL. The method, then:
as §1

Another assay deals with HSP70. The assay can be described thus: Western blot, HSP70. The assay is classed as cell-based, human. The following applies: SKOV-3, 8 μg/mL, 72 h after treatment. How it is done: as §1
Assay [3] has as its system caspase-8. The assay can be described thus: Colorimetric caspase-8 activation assay. The assay is classed as cell-based, human. The following applies: SKOV-3, 8 μg/mL, 48 and 72 h treatment. How it is done:
as §3

For another assay, the system named is cytochrome c. Kind of assay: Cytochrome c releasing apoptosis assay (Western blot of fractions). The assay is classed as cell-based, human. How it is done:
Cytochrome c releasing apoptosis assay kit (ab65311) was purchased from abcam® (Cambridge, UK). The assay was conducted according to the manufacturer’s instruction. Briefly, SKOV-3 cells were induced with artonin E at different time points. The induced and un-induced cells were collected and centrifuged at […] for 5 minutes at 4°C. The cells were washed twice with 10 mL of ice-cold PBS, centrifuged and collected the pellet. The fresh pellets were then re-suspended with 1.0 mL of 1X cytosol extraction buffer mix containing DTT and Protease Inhibitor and incubated on ice for 10 minutes. Cells were then Dounce-homogenized before centrifuging at 7,000×g for 10 min at 4°C. The supernatant were collected and saved as cytosolic fractions. The remaining pellets were resuspended in 0.1 mL mitochondrial extraction buffer, vortexed for 10 seconds and saved as mitochondrial fractions. Both cytosolic and mitochondrial fractions were applied for protein analysis and proceeded with standard Western blot procedure.
SKOV-3 cells were plated in a 75cm^2 culture flask and exposed to artonin E for 24, 48, and 72 h. […] Protein concentration was determined using a BCA protein assay reagent kit (Bio-Rad, USA). […] The protein bands were detected using pico or femto chemiluminescence (ECL system) and visualized using a UV gel documentation system. […]

A further assay concerns caspase-3. The assay can be described thus: Western blot, caspase-3. Particulars: SKOV-3, 8 μg/mL, as early as 24 h. The assay is classed as cell-based, human. The method, then: as §1
For assay [4], the system named is SKOV-3 cells. Kind of assay: MTT cell viability assay, SKOV-3. Particulars: SKOV-3, MTT; for IC50: Homo sapiens. Type of assay: cell-based, human. How it is done: as §2
The inhibitory effects of artonin E and two positive controls paclitaxel and carboplatin were examined by MTT assay. Cells at a density of 5×10^3cells/well were placed in a 96-well plate and left for 24 h to attach. The attached cells were exposed to artonin E, paclitaxel, and carboplatin at different concentrations and incubated for 24, 48, and 72 h. Subsequently, 20 μL of 5 mg/mL MTT solution was added after drug treatment and the resulting mixture was incubated for 4 h to form purple formazan. Afterward, 100 μL of dimethyl sulfoxide (DMSO) was transferred into each well to dissolve the purple formazan, and results were measured using a microplate reader (Tecan Infinite M 200 PRO, Männedorf, Switzerland) at an absorbance of 570 nm. The half-maximal concentrations that caused cell growth inhibition (IC50 values) were obtained from the MTT viability growth curve.

Assay [5] concerns SKOV-3 cells. The assay can be described thus: Clonogenic assay. Type of assay: cell-based, human. Particulars: three weeks incubation. How it is done:
The SKOV-3 cells were trypsinized, centrifuged, and supplemented with fresh media. The cells were immediately counted and seeded (300 cells/plate) in a 60 mm Petridish, and left overnight to attach. The attached cells were treated with 0, 1, 5, 10, 15, and 20 μg/mL of artonin E for 24 h. Following incubation, the treated media were removed and fresh media were added. The cells were incubated for three weeks to form colonies. Surviving colonies were fixed with 90% ethanol and stained with crystal violet.

By IC50 is commonly meant the point on the concentration scale where inhibition reaches its midpoint. Lower therefore signals greater potency in that assay. In the case of `CC(C)=CCc1c(-c2cc(O)c(O)cc2O)oc2c3c(cc(O)c2c1=O)OC(C)(C)C=C3` [Artonin E, artonin E], the “protein expression level of caspase-8” value in the assay with caspase-8 [1] is “up-regulated”. For the same compound, the half-maximal inhibitory concentration (IC50) in [2] came out at 67 ± 1 µg/mL (≈ 154 µM); with SKOV-3 cells [4] (SK-OV-3, 24 h, 24 h treatment) it was 12.8 ± 0.28 µg/mL (≈ 29.4 µM); with SKOV-3 cells [4] (SK-OV-3, 48 h, 48 h treatment) it was 8 µg/mL (≈ 18.3 µM); in the assay on SKOV-3 cells [4] (SK-OV-3, 72 h, 72 h treatment), 6.5 ± 0.5 µg/mL (≈ 14.9 µM). The “stimulation of caspase-9” value in the assay on caspase-9 is “increased significantly”. Besides, the Bcl-2 level entry with Bcl-2 (24 h post treatment) is recorded as “significantly lower”; in the assay on Bcl-2 (after 48 h and 72 h) it was “almost diminished”. The “level of HSP70 expression” value in the assay on HSP70 is reported as “reduced significantly”. In the assay on caspase-8 [3], the “activation of caspase-8” value was “significantly (p<0.05)elevated”. Moreover, the “expression level of cytochrome c in cytosolic fraction” value with cytochrome c (SKOV-3, 8 μg/mL, 24, 48, 72 h) is “increase”. Besides, in the assay on cytochrome c (SKOV-3, 8 μg/mL, time-dependent (24, 48, 72 h)), the “expression level of cytochrome c in mitochondrial fraction” value was “significantly (p<0.05) decreased”. In the assay with caspase-3, the “protein expression level of caspase-3” value is “significantly (p<0.05) up-regulated”. In the assay on SKOV-3 cells [4] (48 h treatment), the IC50 values stood at 8.8 ± 0.29 µg/mL (≈ 20.2 µM). The colony formation result is “almost half of the colonies were reduced” in the assay with SKOV-3 cells [5] (SKOV-3, 5 μg/mL for 24 h); “decreasing sharply” in the assay with SKOV-3 cells [5] (SKOV-3, 10 μg/mL for 24 h); “No colonies were formed” in the assay on SKOV-3 cells [5] (SKOV-3, 15 and 20 μg/mL for 24 h).
